In article PMC5522529, “Mechanisms of Paradoxical Activation of AMPK by the Kinase Inhibitors SU6656 and Sorafenib” (Cell Chemical Biology, 2017):

Assays:
Assay type in all cases: cell-based
AMPK-γ2 (WT) = target: T1, AMPK-γ2 (WT) (Homo sapiens, UniProt Q9UGJ0); experiment: AMPK activity in HEK293 cells expressing WT AMPK-γ2; conditions: 1 hr
T1 construct: expressed in transfected cells; host or cells: Flp-In T-REx 293 (HEK293), tetracycline-inducible
Source text: (§1) The next possibility was that, like several other AMPK-activating drugs, SU6656 inhibits mitochondrial ATP synthesis, and thus activates AMPK indirectly by increasing cellular AMP/ADP. To test this, we used cell lines inducibly expressing either WT AMPK-γ2 or an AMP/ADP-resistant R531G (RG) mutant ([Hawley et al., 2010]). […] There were no effects of SU6656 on cellular oxygen uptake, unlike berberine. Subsequent addition of the uncoupler 2,4-dinitrophenol (DNP), which prevents the respiratory chain from being limited by ADP supply, increased oxygen uptake identically in control and SU6656-treated cells but had no effect following berberine, as expected for a complex I inhibitor (Figure S2).
(§2) (B) WT or RG cells were treated as in (A) and nucleotides extracted for analysis (mean ± SD, n = 3). […] (E) (See also Figure S2) Time courses of cellular oxygen uptake before and after addition of the indicated concentrations of sorafenib (SO, μM), SU6656 (100 μM) or phenformin (PHEN, 10 mM) (mean ± SEM, n = 4). (F) Effect of various concentrations of sorafenib or phenformin (10 mM) on activation (top, mean ± SEM, n = 3) or phosphorylation (bottom) of AMPK in cells expressing wild-type AMPK-γ2 (WT) or the R531G mutant AMPK-γ2 (RG). In all panels, asterisks show significant differences from DMSO controls (ns, not significant). In (B), daggers (†) show significant differences between results in WT and RG cells. *p < 0.05, **p < 0.01, ***p < 0.001, ****p < 0.0001, ^††††p < 0.0001.
(§3) HEK-293 cells stably expressing tetracycline-inducible FLAG-tagged human AMPK-γ2, or an R531G mutant, were generated by introducing the corresponding DNAs into Flp-In™ T-REx™ 293 cells ([Auciello et al., 2014]). Expression of the FLAG-tagged constructs was induced for 48 hr using tetracycline (1 μg.ml^-1) prior to addition of compounds under test. Transient transfections were carried out 36-48 hr prior to experiments, using Fugene 6 according to manufacturers’ instructions.

[1] = target: T2, α1 kinase domain (α1-KD, residues 1–312) (Homo sapiens, UniProt Q13131); experiment: Activity of FLAG-tagged α1 kinase domain expressed in HEK293 cells; conditions: 1 hr
T2 construct: amplifying residues 1-312 with an N-terminal FLAG-tag; expressed in transfected cells; host or cells: HEK293 (transient transfection, pcDNA5 FRT)
Source text: We next expressed an FLAG-tagged α1 kinase domain (α1-KD, residues 1–312) by transient transfection in HEK293 cells, treated the cells with various AMPK activators, and then assayed both the expressed α1-KD (precipitated using anti-FLAG) and endogenous full-length α1 complexes (precipitated using anti-α1 antibodies recognizing an epitope outside the α1-KD). […] This was also observed with A23187, as expected since this ionophore increases intracellular Ca^2+ and activates the alternate upstream kinase CaMKK2.
The α1-KD was precipitated using anti-FLAG and endogenous AMPK complexes using anti-α1 antibody, and activity determined. Results (mean ± SD, n = 2) are expressed relative to activities in DMSO controls. (B) Western blots (n = 2) using the indicated antibodies; samples from experiment in (A). (C) DNAs encoding FLAG-tagged AMPK-α1 (WT or AT mutant) were expressed by transient transfection in HEK293 cells, the cells treated with increasing concentrations of SU6656 for 1 hr, AMPK complexes precipitated with anti-FLAG, and activity measured. Results (mean ± SD, n = 3) are expressed relative to the DMSO control. […] Results (mean ± SD, n = 3) are expressed relative to the DMSO control. **p < 0.01, ***p < 0.001, ****p < 0.0001, ^†††p < 0.001; ns, not significant.
A plasmid encoding the AMPK-α2 kinase domain (α2-KD) was made by amplifying residues 1-310 with 5' BamH1 and 3' Xho1 sites, the resulting PCR product was cloned into pGEX6P2. Point mutations were generated using the Quikchange II site-directed mutagenesis kit (Stratagene) and confirmed by DNA sequencing.

AMPK-α1 (WT) = target: T3, AMPK-α1 (WT) (Homo sapiens, UniProt Q13131); experiment: AMPK activity of FLAG-tagged AMPK-α1 (WT) expressed in HEK293 cells; conditions: for AMPK activity and Thr172 phosphorylation: WT FLAG-α1, A769662 300 μM, berberine 300 μM, phenformin 10 mM, troglitazone 100 μM, oligomycin 1 μM, SU6656 100 μM
T3 construct: we expressed FLAG-tagged full-length AMPK-α1 either as the WT or the AT mutant; expressed in transfected cells; host or cells: HEK293
Source text: (B) Western blotting of the same preparations as in (A). […] (D) Allosteric activation of WT and mutant α1β1γ1 complexes by MT 63-78, curve fitting as for (C). […] (E) Allosteric activation of WT and mutant α1β1γ1 complexes by AMP. Data were fitted to the equation for activation/inactivation by AMP ([Gowans et al., 2013]). […] (F) Activation of WT and AA mutant by various AMPK activators in HEK293 cells. […] FLAG-tagged complexes were isolated by immunoprecipitation and AMPK activity determined (mean ± SEM, n = 2).
We next expressed the FLAG-tagged WT or AA mutant of AMPK-α1 by transient transfection in HEK293 cells, treated with various agents, and measured AMPK activity in anti-FLAG immunoprecipitates. In Figure 4F, the results are expressed as absolute activities and are accompanied by blots showing Thr172 phosphorylation.
The α1-KD was precipitated using anti-FLAG and endogenous AMPK complexes using anti-α1 antibody, and activity determined. […] (B) Western blots (n = 2) using the indicated antibodies; samples from experiment in (A). (C) DNAs encoding FLAG-tagged AMPK-α1 (WT or AT mutant) were expressed by transient transfection in HEK293 cells, the cells treated with increasing concentrations of SU6656 for 1 hr, AMPK complexes precipitated with anti-FLAG, and activity measured.

[2] = target: T4, AMPK-γ2 R531G (RG) mutant (Homo sapiens, UniProt Q9UGJ0, R531G); experiment: AMPK activity in HEK293 cells expressing R531G AMPK-γ2; conditions: 1 hr
T4 construct: expressed in transfected cells
Source text: as §1, §2, §3

T3 sequence (Q13131 whole entry): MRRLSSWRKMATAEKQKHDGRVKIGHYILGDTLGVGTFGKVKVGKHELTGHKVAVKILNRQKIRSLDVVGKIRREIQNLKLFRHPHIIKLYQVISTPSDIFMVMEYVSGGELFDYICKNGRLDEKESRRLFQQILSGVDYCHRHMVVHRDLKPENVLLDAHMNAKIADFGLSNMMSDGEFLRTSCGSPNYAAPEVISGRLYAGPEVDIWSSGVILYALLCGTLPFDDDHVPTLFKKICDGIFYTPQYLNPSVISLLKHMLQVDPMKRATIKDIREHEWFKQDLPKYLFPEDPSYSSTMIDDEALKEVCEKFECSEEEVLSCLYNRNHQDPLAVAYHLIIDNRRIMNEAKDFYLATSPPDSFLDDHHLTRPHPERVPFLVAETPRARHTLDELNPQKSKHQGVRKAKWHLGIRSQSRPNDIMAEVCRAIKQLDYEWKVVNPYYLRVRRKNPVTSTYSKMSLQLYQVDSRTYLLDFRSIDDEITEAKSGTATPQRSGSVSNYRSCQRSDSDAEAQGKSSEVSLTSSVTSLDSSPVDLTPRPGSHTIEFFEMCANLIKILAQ
T3 sequence (P54619 whole entry partner): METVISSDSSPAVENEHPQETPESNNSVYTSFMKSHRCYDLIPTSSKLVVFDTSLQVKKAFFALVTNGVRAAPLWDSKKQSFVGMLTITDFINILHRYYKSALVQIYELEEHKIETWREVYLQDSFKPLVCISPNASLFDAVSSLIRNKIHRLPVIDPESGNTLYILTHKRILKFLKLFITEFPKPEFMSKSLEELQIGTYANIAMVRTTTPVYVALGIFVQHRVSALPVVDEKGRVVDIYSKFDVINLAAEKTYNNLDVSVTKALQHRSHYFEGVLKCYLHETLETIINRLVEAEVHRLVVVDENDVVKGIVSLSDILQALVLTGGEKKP
T2 sequence (Q13131 1-312): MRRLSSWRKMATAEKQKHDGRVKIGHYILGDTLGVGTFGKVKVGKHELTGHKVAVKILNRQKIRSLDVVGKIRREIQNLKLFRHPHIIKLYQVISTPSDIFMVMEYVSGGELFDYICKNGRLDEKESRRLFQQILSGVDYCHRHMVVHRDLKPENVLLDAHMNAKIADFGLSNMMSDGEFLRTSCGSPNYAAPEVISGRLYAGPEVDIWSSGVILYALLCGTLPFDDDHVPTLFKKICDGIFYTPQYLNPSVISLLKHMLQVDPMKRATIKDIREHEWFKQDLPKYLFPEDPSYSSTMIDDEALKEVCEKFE
T4 sequence (Q9UGJ0 whole entry R531G): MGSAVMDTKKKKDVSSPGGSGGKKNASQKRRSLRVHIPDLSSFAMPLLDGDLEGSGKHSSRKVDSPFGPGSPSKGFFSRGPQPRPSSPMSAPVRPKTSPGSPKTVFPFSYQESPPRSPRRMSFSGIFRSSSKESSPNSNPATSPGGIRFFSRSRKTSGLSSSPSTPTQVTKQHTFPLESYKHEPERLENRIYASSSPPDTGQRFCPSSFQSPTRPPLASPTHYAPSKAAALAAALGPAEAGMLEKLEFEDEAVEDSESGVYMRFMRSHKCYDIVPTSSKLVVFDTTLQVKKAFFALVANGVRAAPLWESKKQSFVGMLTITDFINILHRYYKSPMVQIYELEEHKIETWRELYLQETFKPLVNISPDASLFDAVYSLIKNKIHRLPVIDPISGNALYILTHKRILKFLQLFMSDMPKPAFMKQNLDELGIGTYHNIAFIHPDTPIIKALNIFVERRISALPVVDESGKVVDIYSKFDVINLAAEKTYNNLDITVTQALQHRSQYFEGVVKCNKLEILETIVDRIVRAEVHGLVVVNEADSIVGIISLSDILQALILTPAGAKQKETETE
T1 sequence (Q9UGJ0 whole entry): as the sequence (Q9UGJ0 whole entry R531G) above, with G531R counted along it

AMPK activity (AMPK-α1 (WT); WT FLAG-α1 (comparison with AT mutant), 1 hr)	increase in activity and Thr172 phosphorylation (AMPK-α1 (WT); WT FLAG-α1, 100 μM, relative to DMSO control) [fold]	Compound	AMPK activity (AMPK-γ2 (WT))	kinase activity / Thr172 phosphorylation [1]	AMPK activity and Thr172 phosphorylation (AMPK-α1 (WT); 1 hr)	AMPK activity [2]
robustly activated	3	CN(C)S(=O)(=O)c1ccc2c(c1)/C(=C/c1cc3c([nH]1)CCCC3)C(=O)N2 [SU6656]	activated AMPK and enhanced Thr172 phosphorylation in both WT and RG cells	increased kinase activity	activated AMPK and caused Thr172 phosphorylation	activated AMPK and enhanced Thr172 phosphorylation in both WT and RG cells
		CNC(=O)c1cc(Oc2ccc(NC(=O)Nc3ccc(Cl)c(C(F)(F)F)c3)cc2)ccn1 [sorafenib]				Neither AMPK activity nor Thr172 phosphorylation were significantly elevated
		COc1ccc2cc3[n+](cc2c1OC)CCc1cc2c(cc1-3)OCO2 [berberine]	activated AMPK in the WT	failed to activate or cause Thr172 phosphorylation	activated AMPK and caused Thr172 phosphorylation	
